Experimental data reported in patent US20140274927A1, “TNF-Related Biomarkers For Assessing Cancer Cell Response To Treatment With Taxane And/Or Anthracycline Drugs” (priority 2013, published 2014).
Where two headings read alike, the source gives them in different places.

How the values were obtained:
[1] = test system: monocyte TNF levels; conditions: gastric cancer patients, chemotherapy; cited from earlier work
[2] = test system: A2780 ovarian tumour cells; conditions: cited from earlier work
[3] = test system: MCF-7CC cells; assay: Clonogenic assay
Procedure: (§1) Cellular sensitivity to TNFα or docetaxel was assessed using a clonogenic assay as described previously. Docetaxel resistance factors for the cell lines were determined by dividing the IC50 for docetaxel in the taxane-resistant cell lines by the IC50 for MCF-7CC cells. […] (SN-50, 7 μg/ml). A control peptide at the same concentration (SN-50M) was used in the latter experiments to assess the specificity of NF-κB inhibition.

[4] = test system: MCF-7TXT cells; assay: Clonogenic assay
Procedure: (§2) MCF-7 cells from the American Tissue Culture Collection (catalog number HTB-22) were cultured or selected for survival in increasing doses of docetaxel or paclitaxel as previously described [17;18]. The initial concentrations of docetaxel and paclitaxel used to begin selection (dose 1) were 0.51 and 0.56 nM, respectively. Cells selected to docetaxel concentrations of 1.11 nM (dose 8, MCF-7TXT8), 3.33 nM (dose 9, MCF-7TXT9), 5.00 nM (dose 10, MCF-7TXT10), 15 nM (dose 11, MCF-7TXT11), and 45 nM (dose 12, MCF-7TXT12) were used in this study. Numbers in subscripts of cell line names refer to the maximum docetaxel dose level to which the cells were exposed. The paclitaxel resistant cell line used in this study was selected in an identical manner to a final concentration of 6.64 nM paclitaxel (MCF-7TAX-1 cells; hyphenated number indicates the first cell line selection, not drug dose). […] A2780 ovarian carcinoma cells from the European Collection of Cell Cultures were also selected for resistance to docetaxel in an identical manner (A2780DXL cells), including the creation of “co-cultured control” A2780CC cells.
as §1

[5] = test system: A2780DXL cells; assay: Clonogenic assay; type: cell-based, human; conditions: A2780DXL cells at maximally tolerated dose (405 nM)
Procedure: as §2, §1

[6] = test system: MCF-7CC cells; assay: sTNFα in cell culture medium by ELISA; type: cell-based, human
Procedure: (§3) Concentrated proteins from the medium of two million MCF-7CC, MCF-7TXT or A2780 cells (grown in culture in the absence or presence of various concentrations of paclitaxel or docetaxel) were assessed for levels of sTNFα or sTNFR1 using ELISA kits from R&D Systems™, following the manufacturer's instructions.

[7] = test system: MCF-7TXT cells; assay: sTNFα in cell culture medium by ELISA; type: cell-based, human; conditions: for sTNFα levels: 50 nM docetaxel
Procedure: as §3

[8] = test system: A2780 cells; assay: sTNFα in cell culture medium by ELISA; type: cell-based, human
Procedure: as §3

[9] = test system: MCF-7TAX-1 cells; assay: sTNFα in cell culture medium by ELISA; type: cell-based, human; conditions: presence or absence of docetaxel
[10] = test system: MCF-7TAX-1 cells; conditions: cited from earlier work
[11] = test system: murine macrophages; conditions: cited from earlier work
[12] = breast cancer patients following docetaxel infusion; cited from earlier work
[13] = test system: NF-κB p65 and p50 subunits; assay: NF-κB activity in nuclear extracts (TransAM NF-κB Family ELISA); type: cell-based, human; conditions: MCF-7CC and MCF-7TXT cells, 50 nM docetaxel 24 hours; except selection doses >15 nM (dose 11 and 12)
Procedure: MCF-7CC and MCF-7TXT cells were cultured in the presence or absence of 50 nM docetaxel for 24 hours. The activity of the NF-κB p65 and p50 subunits in 10 μg of nuclear extracts was assessed as outlined in the TransAM™ NF-κB Family ELISA kit (Active Motif™, Carlsbad, Calif.). Readings at 450 nm were normalized to the sum of all readings on the plate in order to compare across triplicate experiments.

[14] = test system: serum levels of proinflammatory cytokines, including TNFα; conditions: castration-resistant prostate cancer patients, two days after administration; cited from earlier work
[15] = test system: MCF-7TAX-1 cells; assay: Clonogenic assay; type: cell-based, human
Procedure: as §2, §1

[16] = test system: C2C12 myotubes; conditions: cited from earlier work
[17] = test system: MCF-7TXT cells; conditions: cited from earlier work

Compound: O=c1[nH]cc(F)c(=O)[nH]1 [5FU]
- monocyte TNF levels [1]: no effect

Compound: CC[C@@]1(O)C(=O)OCc2c1cc1n(c2=O)Cc2cc3c(CN(C)C)c(O)ccc3nc2-1 [Topotecan]
- TNF alpha production / levels [2]: no effect on TNF alpha levels

Compound: N.N.[Cl][Pt][Cl] [cisplatin]
- TNF alpha production / levels [2]: increased TNF alpha production

Compound: C[C@@H]1C[C@@H]([C@H](O)CC2CC(=O)NC(=O)C2)C(=O)[C@@H](C)C1 [cycloheximide]
- effect on TNFα cytotoxicity ([3]; cycloheximide 5 μg/mL with 10 ng/mL TNFα, 24 hours): only a small additional effect
- effect on TNFα cytotoxicity ([4]; MCF-7TXT10 cells, cycloheximide 5 μg/mL with 10 ng/mL TNFα, 24 hours): restored TNFα's ability to be cytotoxic

Compound: CC(=O)O[C@@]12CO[C@@H]1C[C@H](O)[C@@]1(C)C(=O)[C@H](O)C3=C(C)[C@@H](OC(=O)[C@H](O)[C@@H](NC(=O)OC(C)(C)C)c4ccccc4)C[C@@](O)([C@@H](OC(=O)c4ccccc4)[C@H]21)C3(C)C [docetaxel]
- resistance to docetaxel [5]: ~4000 fold
- sTNFα levels in media ([6]; MCF-7CC cells, 3 nM docetaxel, 48 hours): significantly elevated
- sTNFα secretion ([6]; MCF-7CC cells, 50 nM docetaxel versus untreated): no significant difference
- sTNFα levels secreted ([6]; MCF-7CC cells, 0.1 to 1 nM docetaxel, versus untreated): not significantly changed
- TNFα production and sTNFα release ([6]; breast tumor cells, docetaxel 3 to 45 nM): can stimulate TNFα production and sTNFα release
- sTNFα secretion ([7]; MCF-7TXT8 cells, 50 nM docetaxel versus untreated): no significant difference
- further increase of sTNFα production ([7]; MCF-7TXT9 cells, 50 nM docetaxel versus untreated): 1.62 fold
- further increase of sTNFα production ([7]; MCF-7TXT10 cells, 50 nM docetaxel versus untreated): 1.27 fold
- sTNFα levels ([7]; MCF-7TXT11 cells): returned to basal levels
- sTNFα levels ([7]; MCF-7TXT12 cells): returned to basal levels
- sTNFα levels secreted ([8]; A2780CC cells, 0.1 to 1 nM docetaxel, versus untreated): not significantly changed
- TNFα produced in response to docetaxel ([8]; A2780 cells, compared with MCF-7CC cells, 48 hours): even greater amounts
- TNFα production and sTNFα release ([8]; ovarian tumor cells, docetaxel 3 to 45 nM): can stimulate TNFα production and sTNFα release
- sTNFα levels versus MCF-7CC [9]: No differences
- cross resistance to docetaxel [10]: 46 fold
- docetaxel sensitivity ([4]; MCF-7TXT8 cells (selected to 1.1 nM docetaxel) versus MCF-7CC): did not affect docetaxel sensitivity
- resistance to docetaxel (IC50 ratio to MCF-7CC) ([4]; MCF-7TXT9 cells (selected to 3.33 nM docetaxel)): 11.4 fold
- docetaxel resistance factor ([4]; MCF-7TXT10 cells (selected to 5 nM docetaxel)): 16.6
- docetaxel resistance factor ([4]; MCF-7TXT11 cells (selected to 15 nM docetaxel)): 32.8
- docetaxel resistance factor ([4]; MCF-7TXT12 cells (selected to 45 nM docetaxel)): 184
- TNFα expression ([11]; same study): no effect
- plasma levels of docetaxel [12]: 10 to 75 nM
- p65 and p50 subunit binding to the NF-κB sequence [13]: even higher levels
- serum levels of proinflammatory cytokines, including TNFα [14]: increased

Compound: COc1cccc2c1C(=O)c1c(O)c3c(c(O)c1C2=O)C[C@@](O)(C(=O)CO)C[C@@H]3O[C@H]1C[C@H](N)[C@H](O)[C@H](C)O1 [doxorubicin]
- TNFα expression ([6]; MCF-7 breast tumour cells, FIG. 1D): induces TNFα expression
- TNFα expression ([8]; A2780 ovarian tumour cells, FIG. 1E): induces TNFα expression
- TNF alpha production / levels [2]: increased TNF alpha production
- monocyte TNF levels [1]: no effect

Compound: CO[C@@]12[C@H](COC(N)=O)C3=C(C(=O)C(C)=C(N)C3=O)N1C[C@@H]1N[C@@H]12 [mitomycin C]
- monocyte TNF levels [1]: no effect

Compound: CC(=O)O[C@H]1C(=O)[C@@]2(C)[C@H]([C@H](OC(=O)c3ccccc3)[C@]3(O)C[C@H](OC(=O)[C@H](O)[C@@H](NC(=O)c4ccccc4)c4ccccc4)C(C)=C1C3(C)C)[C@]1(OC(C)=O)CO[C@@H]1C[C@@H]2O [paclitaxel]
- paclitaxel resistance factor ([15]; maximally tolerated dose of paclitaxel): 42
- sTNFα production ([8]; A2780 cells, paclitaxel at concentrations 15 nM, compared with docetaxel): even higher levels
- sTNFα release ([8]; ovarian tumor cells, paclitaxel 5 and 15 nM): dramatically increase sTNFα release
- TNFα production ([16]; 4 hours following treatment, paclitaxel 10 nM to 10 μM): did not induce increased TNFα production
- NF-κB activity [16]: induced NF-κB activity
- cross-resistance to paclitaxel, resistance factor ([17]; selection dose 11): 148
- cross-resistance to paclitaxel, resistance factor ([17]; selection dose 12): 251
- sTNFα release ([11]; levels unachievable in patients): increase sTNFα release

Compound: CC[C@]1(O)C[C@@H]2CN(CCc3c([nH]c4ccccc34)[C@@](C(=O)OC)(c3cc4c(cc3OC)N(C)[C@H]3[C@@](O)(C(=O)OC)[C@H](OC(C)=O)[C@]5(CC)C=CCN6CC[C@]43[C@@H]65)C2)C1 [vinblastine]
- TNF alpha production / levels [2]: increased TNF alpha production

Compound: TNFα
- colony formation ([15]; TNFα 50 or 100 ng/ml, relative to MCF-7TXT10): strong reductions in colony formation
- colony formation ([3]; TNFα 50 or 100 ng/mL): very strongly reduced
- NF-κB activity [16]: induced NF-κB activity
- reduction of colony formation ([4]; MCF-7TXT8 cells, TNFα 10 ng/ml): 66.6±1.7%
- colony formation in absence or presence of TNFα ([4]; MCF-7TXT10 cells, TNFα 10 ng/mL): significant resistance to TNFα
- reductions in colony formation ([4]; MCF-7TXT10 cells, TNFα 50 ng/mL or 100 ng/mL, compared with MCF-7CC): much smaller
- colony formation ([4]; MCF-7TXT12 cells, TNFα 10 ng/mL): increased colony formation
